Data as given in patent US6939850B2, “Altered human interleukin-1β convertase (ICE), NEDD-2, and C. elegans ced-3 polypeptides and uses therefor” (Massachusetts Institute of Technology, priority 1992, dated 2005).

What was measured:
chick spinal motoneurons = assay: Motoneuron culture deprived of muscle extract, survival; assay type: cell-based; conditions: without muscle extract, treated between 14 and 24 hours, counted after 3 days
Excerpt: A tissue culture model system that allows isolation of a relatively pure population of motoneurons whose survival is dependent on muscle extract, a potent source of target-derived trophic support, was used to test the ability of peptide inhibitors of ICE to block motoneuron cell death (Milligan et al., J Neurobiology 25:1005-1016 (1994) and Block-Gallego et al., Development. 111:221-232 (1991)). The death of motoneurons deprived of trophic support in vitro requires new gene expression and occurs by apoptosis (Milligan et al., J. Neurobiology 25:1005-1016 (1994)). Motoneurons deprived of trophic support at the time of plating become irreversibly committed to undergo cell death after 16-18 hours (Milligan et al., J. Neurobiology 25:1005-1016 (1994)). […] When motoneurons are treated with peptide inhibitors in the absence of muscle extract for three days and subsequently supplemented on day three with muscle extract, they continue to survive, and by six days appear as healthy and differentiated as the motoneurons that were continuously supplied with muscle extract (FIGS. 12A, 12B, 15G). Thus, motoneurons rescued for 3 days by ICE inhibitors remain capable of responding to trophic factors present in muscle extract.
Methods for motoneuron cultures. […]

cervical motoneurons = assay: Cervical motoneuron cell death in vivo; design: species or system chick
Excerpt: The ability of the ICE inhibitors to block cell death in two classes of neurons whose naturally occurring death appears to be independent of target interaction was also studied. First, motoneurons in the cervical spinal cord undergo PCD between E4 and E5, with maximum levels occurring at E4.5.

“Acetyl-Tyr-Val-Ala-Asp-aldehyde [Ac-YVAD-CHO]” was tested, and the motoneuron death (chick spinal motoneurons) was “inhibitory effects on motoneuron death”, the “survival promoting effects on cervical motoneurons” value (cervical motoneurons; compared to control or Ac-LLR-CHO treated animals) was “no survival promoting effects” and the “Pyknotic Cervical Motoneurons on E4.5” value (cervical motoneurons; mean ±SD) was 25.9 ± 3.4.
